Laboratory results taken from patent US20260305610A1, “TRIAZOLE COMPOUND, AND PREPARATION METHOD THEREFOR, HERBICIDAL COMPOSITION AND USE THEREOF” (QINGDAO KINGAGROOT CHEMICAL COMPOUND CO., LTD., priority 2023, published 2026).

Legend:
major crops = assay: Pre-emergence test experiment (crops); type: in vivo; design: key: 9: completely dead; 8: growth control rate is greater than or equal to 90% and less than 100%; 7: growth control rate is greater than or equal to 80% and less than 90%; 6: growth control rate is greater than or equal to 70% and less than 80%; growth control rate is greater than or equal to 50% and less than 70%; 4: growth control rate is greater than or equal to 30% and less than 50%; growth control rate is greater than or equal to 20% and less than 30%; growth control rate is greater than or equal to 10% and less than 20%; growth control rate is less than 10%; 0: no effect; conditions: 30 g a.i./ha
[1] = system: monocotyledonous and dicotyledonous weeds; assay: Pre-emergence test experiment (weeds); type: in vivo; design: key: 9: completely dead; 8: growth control rate is greater than or equal to 90% and less than 100%; 7: growth control rate is greater than or equal to 80% and less than 90%; 6: growth control rate is greater than or equal to 70% and less than 80%; growth control rate is greater than or equal to 50% and less than 70%; 4: growth control rate is greater than or equal to 30% and less than 50%; growth control rate is greater than or equal to 20% and less than 30%; growth control rate is greater than or equal to 10% and less than 20%; growth control rate is less than 10%; 0: no effect; conditions: 30 g a.i./ha

Structure (SMILES) | Pre-emergence plant damage level (growth control rate) on Corn (major crops) | Pre-emergence plant damage level (growth control rate) on Cotton (major crops) | Pre-emergence plant damage level (growth control rate) on Soybean (major crops) | Pre-emergence activity level (growth control rate) on Amaranthus retroflexus [1] | Pre-emergence activity level (growth control rate) on Descurainia sophia [1] | Pre-emergence activity level (growth control rate) on Digitaria sanguinalis [1] | Pre-emergence activity level (growth control rate) on Setaria viridis [1] | Pre-emergence activity level (growth control rate) on Solanum nigrum [1] | Pre-emergence activity level (growth control rate) on Veronica [1]
N#Cc1cc(Oc2cccc(C(F)(F)F)c2)nc(-n2cnc(C(F)(F)F)n2)c1 [Compound 2] | 0 | 0 | 0 | 9 | 9 | 8 (growth control rate is greater than or equal to 90% and less than 100%) | 8 (growth control rate is greater than or equal to 90% and less than 100%) | 9 | 9
COc1cc(Oc2cccc(C(F)(F)F)c2)nc(-n2cnc(C(F)(F)F)n2)c1 [Compound 3] | 0 | 0 | 0 | 9 | 9 | 8 (growth control rate is greater than or equal to 90% and less than 100%) | 9 | 9 | 9
Cc1cc(Oc2cccc(C(F)(F)F)c2)nc(-n2cnc(C(F)(F)F)n2)c1 [Compound 5] | 0 | 0 | 0 | 9 | 9 | 9 | 9 | 9 | 9
Cc1cc(Oc2cncc(C(F)(F)F)c2)nc(-n2cnc(C(F)(F)F)n2)c1 [Compound 6] | 0 | 0 | 0 | 9 | 9 | 9 | 9 | 9 | 9
FC(F)(F)c1cccc(Oc2nc(-n3cnc(C(F)(F)F)n3)ccc2Cl)c1 [Compound 7] | 0 | 0 | 0 | 9 | 9 | 8 (growth control rate is greater than or equal to 90% and less than 100%) | 9 | – | 9
Cc1ccc(-n2cnc(C(F)(F)F)n2)nc1Oc1cccc(OC(F)(F)F)c1 [Compound 9] | 0 | 0 | 0 | 9 | 9 | 9 | 9 | 9 | 9
Cc1ccc(-n2cnc(C(F)(F)F)n2)nc1Oc1ccc(F)c(C(F)(F)F)c1 [Compound 10] | 0 | 0 | 0 | 9 | 9 | 9 | 9 | 9 | 9
Cc1ccc(-n2cnc(C(F)F)n2)nc1Oc1cccc(F)c1 [Compound 81] | – | – | – | 9 | 9 | – | – | – | 9
CSc1cc(Oc2cccc(C(F)(F)F)c2)nc(-n2cnc(C(F)(F)F)n2)c1 [Compound 86] | – | – | – | – | – | – | – | – | 9
CSc1cc(Oc2cccc(OC(F)(F)F)c2)nc(-n2cnc(C(F)(F)F)n2)c1 [Compound 87] | – | – | – | – | – | – | – | – | 8 (growth control rate is greater than or equal to 90% and less than 100%)
Cc1ccc(-n2cnc(C(F)(F)F)n2)nc1Oc1cccc(C#N)c1 [Compound 88] | – | – | – | 9 | – | – | – | 9 | –
CCc1ccc(-n2cnc(C(F)(F)F)n2)nc1Oc1cccc(C#N)c1 [Compound 89] | – | – | – | 9 | – | 9 | 9 | – | –
CCc1ccc(-n2cnc(C(F)(F)F)n2)nc1Oc1cncc(C#N)c1 [Compound 94] | – | – | – | – | – | – | 8 (growth control rate is greater than or equal to 90% and less than 100%) | – | –
CCc1ccc(-n2cnc(C(F)(F)F)n2)nc1Oc1ccc(F)c(C#N)c1 [Compound 96] | – | – | – | 8 (growth control rate is greater than or equal to 90% and less than 100%) | 9 | – | – | – | –
Cc1ccc(-n2cnc(C3CC3)n2)nc1Oc1cccc(C(F)(F)F)c1 [Compound 100] | – | – | – | – | – | – | 9 | 8 (growth control rate is greater than or equal to 90% and less than 100%) | –
CSc1cc(Oc2cncc(C(F)(F)F)c2)nc(-n2cnc(C(F)(F)F)n2)c1 [Compound 111] | – | – | – | – | 9 | – | 8 (growth control rate is greater than or equal to 90% and less than 100%) | – | –
Cc1cc(Oc2ccc(F)c(C(F)(F)F)c2)nc(-n2cnc(C(F)(F)F)n2)c1 [Compound 120] | – | – | – | – | 9 | – | – | – | –
Cc1cc(Oc2cccc(Cl)c2)nc(-n2cnc(C(F)(F)F)n2)c1 [Compound 121] | – | – | – | – | 9 | – | – | – | –
Cc1cc(Oc2cccc(OC(F)(F)F)c2)nc(-n2cnc(C(F)(F)F)n2)c1 [Compound 122] | – | – | – | 8 (growth control rate is greater than or equal to 90% and less than 100%) | 9 | 8 (growth control rate is greater than or equal to 90% and less than 100%) | 9 | – | 8 (growth control rate is greater than or equal to 90% and less than 100%)
Cc1cc(Oc2ccc(F)c(OC(F)(F)F)c2)nc(-n2cnc(C(F)(F)F)n2)c1 [Compound 123] | – | – | – | – | 9 | – | – | – | –
Cc1ccc(-n2cnc(C(F)(F)C(F)(F)F)n2)nc1Oc1cccc(C(F)F)c1 [Compound 125] | – | – | – | – | 9 | – | – | 9 | –
Cc1ccc(-n2cnc(C(F)(F)C(F)(F)F)n2)nc1Oc1ccc(F)c(C(F)(F)F)c1 [Compound 126] | – | – | – | – | 9 | – | – | 9 | –
Cc1ccc(-n2cnc(C(F)(F)C(F)(F)F)n2)nc1Oc1cccc(OC(F)F)c1 [Compound 127] | – | – | – | – | 9 | – | 8 (growth control rate is greater than or equal to 90% and less than 100%) | 9 | –
CCc1ccc(-n2cnc(C(F)F)n2)nc1Oc1cccc(F)c1 [Compound 128] | – | – | – | – | – | – | – | 9 | –
CCc1ccc(-n2cnc(C(F)(F)F)n2)nc1Oc1cccc(F)c1 [Compound 129] | – | – | – | – | – | 8 (growth control rate is greater than or equal to 90% and less than 100%) | 9 | – | –
CCc1ccc(-n2cnc(C(F)(F)F)n2)nc1Oc1cccc(Cl)c1 [Compound 130] | – | – | – | – | 9 | – | – | 9 | –
CCc1ccc(-n2cnc(C(F)F)n2)nc1Oc1cccc(Cl)c1 [Compound 131] | – | – | – | – | – | – | – | 9 | –
CCc1ccc(-n2cnc(C(F)(F)F)n2)nc1Oc1cccc(C)c1 [Compound 134] | – | – | – | 8 (growth control rate is greater than or equal to 90% and less than 100%) | 9 | 8 (growth control rate is greater than or equal to 90% and less than 100%) | – | – | –
COCc1ccc(-n2cnc(C(F)(F)F)n2)nc1Oc1cccc(F)c1 [Compound 138] | – | – | – | – | 9 | – | – | 9 | –
